US6858383B2, “Compositions and methods for the treatment and prevention of cardiovascular diseases and disorders, and for identifying agents therapeutic therefor” (Medlyte, Inc., priority 2000, dated 2005)

What was measured:
[1] = system: isolated perfused rat heart; experiment: Langendorff rat heart model of global ischemia and reperfusion; conditions: 0.1 mM gentamicin recirculated 30 min; 40 min global ischemia; 45 min reperfusion
Experimental: A rat model of ischemia and reperfusion was used to evaluate the therapeutic potential of a gentamicin, an amino glycoside that inhibits sphingomyelinase.
Gentamicin vehicle solution was prepared as follows. A stock solution of 0.1 M Gentamicin was prepared by adding 70 mg of Gentamicin Sulfate (Sigma, G1264) to 1 ml of KH Buffer. KH buffer (150 ml) was combined with 150 μl)l of the stock solution to yield a 0.1 mM solution.
The protocol used was essentially that described by Sakai et al. (A device for recording left ventricular contraction and electrocardiogram in nonworking isolated perfused rat heart, Jpn J Pharmacol 28:223-9, 1978), and Zelinski et al., (Phosphatidylcholine biosynthesis in isolated hamster heart, J Biol Chem. 255:11423-8, 1980) with the exception, in the latter instance, that rat studies were used in the experiments described herein instead of hamster hearts.
In brief, rats were anesthetized and their hearts were excised. The isolated hearts were cannulated and attached to Langendorff perfusion apparatus, and perfused with KH buffer. The hearts were allowed to stabilize for 5-10 min. […]
A small hole was cut in the left atrium of each animal to expose the mitral valve. […] Left ventricular pressure was measured and recorded using the MacLab program. […]
After about 45 min., the perfusate was turned off and the ventricular pressure was no longer recorded. […]

[2] = biological target: tumor necrosis factor alpha (TNFα) released by cultured rat cardiomyocytes (rat) (UniProt P16599); experiment: cell-based or functional assay
Chain of tumor necrosis factor alpha (TNFα) released by cultured rat cardiomyocytes (rat) (P16599 80-235 limits assumed): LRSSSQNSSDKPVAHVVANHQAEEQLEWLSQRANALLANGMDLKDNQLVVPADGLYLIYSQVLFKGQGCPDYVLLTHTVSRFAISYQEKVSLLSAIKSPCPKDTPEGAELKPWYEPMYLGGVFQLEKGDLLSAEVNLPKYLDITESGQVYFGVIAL

[3] = Fate of 3H-SPH incubated in whole blood, TLC; format: in vitro ADME, human
Experimental: Experiments were carried out to determine the fate of any SPH that might be released from cells or platelets into the extracellular compartment. Whole blood samples were incubated in vitro for up to 15 hours with ^3H-SPH, followed by thin layer chromatography (TLC) to examine which, if any, of the known metabolic products of the sphingomyelin pathway were radiolabeled as a result of metabolism of radiolabeled SPH.

[4] = system: Adult rat cardiomyocytes; experiment: Hypoxia-induced sphingosine (SPH) production/release in cultured cardiomyocytes, HPLC of extracted sphingolipids; format: cell-based
Experimental: Adult rat cardiomyocytes were subjected to hypoxic conditions as described above and assayed for their ability to produce sphingolipid bases involved in the sphingomyelin signal transduction cascade.
Cardiomyocytes were cultured on plastic dishes that were placed in a humidified modular incubator chamber (ICN Biomedicals, Aurora, Ohio) pressurized to 0.04-0.05 psi by the particular gas mixture used in the treatment. Warm (37° C.) Tyrode's solution containing 0.2 mM BSA, ampicillin ([…]), kanamycin (100 mg/mL) and fungizone (20 μg/mL) was gassed in a 50 mL sterile conical for 15 minutes with 95%N2/5% CO2 prior to adding the solution to the cultured cells. The pO2 was monitored by a Micro pO2 System oxygen electrode (Lasar Research Labs, Los Angeles, Calif.) and found to be 4.0 PPM for the duration of the hypoxia condition. […] The pH of control and experimental cell cultures was monitored with a micro pH electrode (Beetrode pH Electrodes, Sarasota, Fla.) and remained constant at pH=7.26+/−0.02 for normoxic cells and 7.15+/−0.03 for hypoxic cells throughout the experiment. […]
The HPLC analysis was performed using a Beckman (Fullerton, Calif.) System Gold 118 Solvent Module and 507e Autosampler. A Jasco (Easton, Md.) FP-920 Intelligent Fluorescence Detector was used with an excitation wavelength of 330 nm and emission wavelength of 455 nm. […]

[5] = system: cultured cardiomyocytes; experiment: S-1-P applied to cultured cardiomyocytes: apoptosis and calcium deregulation; format: cell-based, rat; conditions: S-1-P treatment of cultured cardiomyocytes
Text: Exogenously applied […] is capable of activating blood platelets (Yatomi et al., J. Biol. Chem. 272:5291-5297, 1997; Yatomi et al., Blood 86:193-202, 1995). […] The first is to act on the platelets to promote the clotting response and further exacerbate the ischemia. Secondly, the platelet-derived […] acts in a paracrine fashion on neighboring endothelial and myocardial cells to promote calcium deregulation and apoptosis. On the cardiomyocytes, the consequence is to promote calcium overload. The endothelial cell response is to promote vasoconstriction and further limit the blood supply through the coronary vasculature. […] Extracellular […] is the ligand for a novel class of G protein-coupled receptors (GPCRs). Such receptors were first described as an orphan GPCRs cloned from human umbilical vein endothelial cells (Hla et al., J. Biol. Chem. 265:9308-9313, 1990; Lynch et al., Trends Pharmacol. Sci. 20:473-475, 1999). […] However, cardiac tissues are composed of diverse cell types, including endothelial cells, which have high levels of EDG-1 expression (Hla et al., J. Biol. Chem. 265:9308-9313, 1990). […] Recently a EDG-1 gene and its protein expression were determined in primary cultures of neonatal rat cardiomyocytes and in adult rat ventricular tissue (Nakajima et al., Biophysical J. 78:319 A, 2000). […]

[6] = system: cultured cardiomyocytes; conditions: S-1-P applied to cultured cardiomyocytes; cited from earlier work

gentamicin
ischemia and reperfusion injury (left ventricular pressure) [1]: mitigated

TNFRII:Fc receptor fragment (from UniProt P20333 23-257) (Fc fusion)
SPH release from hypoxic cardiomyocytes after pretreatment with TNFRII:Fc [2]: 3 fold

CCCCCCCCCCCCC/C=C/[C@@H](O)[C@@H](N)CO [^3H-SPH, D(+)-erythro-2-amino-4-trans-octadecene-1,3-diol]
conversion to ceramide or sphingomyelin ([3]; whole blood in vitro, up to 15 hours): not converted | conversion of 3H-SPH to 3H-S-1-P ([3]; whole blood in vitro, within 20 minutes): 86%

C[N+](C)(C)C[C@H](O)CC(=O)[O-] [L-carnitine]
hypoxia-induced production of sphingosine ([4]; cellular model): blocks | amount of total SPH ([4]; pretreated 30 min prior to hypoxia (5 hours), TNFRII:Fc 0.5 ng/mL, L-carnitine 20 ng/mL, adult cardiomyocytes): significantly (p<0.01) reducing

CCCCCCCCCCCCC/C=C/[C@@H](O)[C@@H](N)COP(=O)(O)O [S-1-P, sphingosine-1-phosphate]
average calcium level combining both diastolic and systolic responses [5]: significantly increased | apoptosis of cultured cardiomyocytes [6]: resulted in apoptosis | stability in whole blood ([3]; 15-hour time course): very stable
